Values of other authors as cited in US20110144044A1, “Composition and method for increasing post workout recovery” (priority 2009, published 2011).

Tests used:
rats = conditions: CNS administration
[1] = after caffeine ingestion 6 mg/kg, intense exercise

SMILES	run time to fatigue (rats)	increase in treadmill run time to fatigue (rats)	muscle lactate concentration (subjects; [1])	net muscle glycogenolysis (subjects; [1])	plasma epinephrine concentration (subjects; [1])	endurance (subjects; caffeine 6 mg/kg ingested vs placebo, cycling to voluntary exhaustion)
CCNC(=O)[C@H]1O[C@@H](n2cnc3c(N)ncnc32)[C@H](O)[C@@H]1O [NECA, 5′-N-ethylcarboxamidoadenosine]	significantly reduced run time to fatigue	–	–	–	–	–
Cn1c(=O)c2c(ncn2C)n(C)c1=O [caffeine]	–	approximately 60%	increased	unaffected	increased	significant increase in endurance
